{"source": "paper PMC6978316", "about": "“Development of chimeric peptides to facilitate the neutralisation of lipopolysaccharides during bactericidal targeting of multidrug-resistant Escherichia coli” (Communications Biology, 2020)", "key": {"E. coli LPS": {"test_system": "E. coli LPS", "experiment": "BODIPY-TR-cadaverine (BC) displacement assay", "format": "binding, Escherichia coli", "set-up": "BC displacement from LPS, Mean: unit not given here", "conditions": "for BC displacement from LPS, Mean: mean of n = 3", "method": "The affinity of SCPs (A6, G6, and N6) to E. coli LPS was detected by the fluorescent BC probe. The binding of fluorescent probe with LPS can cause fluorescence quenching. When peptides bind to LPS, BC probe can be replaced, which can result in an increase in fluorescence. Equal volumes of LPS (40 μg per ml) and BC probe (10 μM) in 50 mM Tris buffer (pH 7.4) were mixed and added into a black 96-well microtiter plate (180 μl mixture per well), followed by the addition of different concentrations of A6, G6, or N6 (20 μl per well). Ampicillin and PMB were used as the negative and positive control, respectively. Changes in fluorescence were measured by a fluorescence spectrophotometry at room temperature (excitation: 580 nm, emission: 620 nm) and the BC displacement rate was calculated."}, "E. coli CVCC195": {"test_system": "E. coli CVCC195", "format": "cell-based, Escherichia coli", "conditions": "for Fold change in MIC: E. coli CVCC195", "method": "Bacterial resistance against the peptides was assessed via the MIC assays. […] After 16–18 h of incubation at 37 °C, cells from the second highest concentration showing visible growth were used to inoculate the subsequent cultures. The MIC values for drug passage cultures were obtained as described above. This process was repeated for 30 d."}, "tested bacterial strains": {"test_system": "tested bacterial strains", "experiment": "MIC, range over all tested strains (peer review file)", "format": "cell-based", "conditions": "manuscript lines quoted in the peer review file", "method": "The MIC values of A6, G6, the parental peptides (N6 and LBP14), LBPN6, scramble controls (N6CK, A6CK, and G6CK), and PMB were determined by the microtiter broth dilution method. The tested strains included Gram-negative bacteria, Gram-positive bacteria, and fungi and were cultured to the logarithmic growth phase, diluted to 10^5 CFU per ml, and added into 96-well plates (90 μl per well). Peptides or antibiotic were diluted with PBS by 2-fold dilution and were added to each well (10 μl per well). Polymyxin B (PMB) and PBS were used as the positive and negative control, respectively. […] All experiments were repeated three times."}, "pepsin": {"test_system": "pepsin", "format": "in vitro ADME"}, "trypsin": {"test_system": "trypsin", "format": "in vitro ADME"}, "in vitro": {"experiment": "in vitro", "conditions": "mouse, serum, peptide remaining in serum, Mean, mice serum, 37 °C, RP-HPLC, mean of n = 3 (source data Fig. 2f)", "method": "The thermal, pH and enzyme stability of A6 and G6 were evaluated against MDR E. coli CVCC195 using a previous method with minor revisions. The N6, A6, and G6 solutions were treated at different temperatures (20–100 °C) for 1 h, dissolved and incubated at different pH values (2–10) for 3 h, or incubated with trypsin or pepsin for 4 h. The inhibition zone diameters were measured after incubation at 37 °C for 18–24 h. The peptides were dissolved in H2O or mice serum at 37 °C to detect their serum stability and samples were removed at different time points to determine their residual activity by the inhibition zone or reverse-phase high-performance liquid chromatography (RP-HPLC) methods[62],[63]."}, "[1]": {"experiment": "Biodistribution of FITC-labeled peptides (in vivo fluorescence imaging)", "conditions": "nude mice, FITC-labeled peptide 5 mg per kg intraperitoneally", "method": "The nude mice were intraperitoneally injected with 5 mg per kg FITC-labeled A6, G6, and N6, respectively. Free FITC was used as a negative control."}}, "note": "Read-outs that look alike come from different tables or passages of the source. Where a SMILES comes first, the peptide text is derived from it. Bridges are numbered along the chain shown (N, C = ends). Where no end group is shown, it is not given here.", "data": [{"compound": "CC1(C)S[C@@H]2[C@H](NC(=O)[C@H](N)c3ccccc3)C(=O)N2[C@H]1C(=O)O", "note": "[AMP, Ampicillin]", "values": [{"measurement": "BC displacement from LPS, Mean", "setting": "E. coli LPS; 0.05 μM, LPS 40 μg per ml + BC 10 μM, 50 mM Tris pH 7.4, ex 580/em 620 nm", "result": -0.1364}, {"measurement": "BC displacement from LPS, Mean", "setting": "E. coli LPS; 0.1 μM", "result": -0.2089}, {"measurement": "BC displacement from LPS, Mean", "setting": "E. coli LPS; 0.5 μM", "result": -1.734}, {"measurement": "BC displacement from LPS, Mean", "setting": "E. coli LPS; 1 μM", "result": -1.14}, {"measurement": "BC displacement from LPS, Mean", "setting": "E. coli LPS; 5 μM", "result": -3.263}, {"measurement": "BC displacement from LPS, Mean", "setting": "E. coli LPS; 10 μM", "result": -3.845}, {"measurement": "BC displacement from LPS, Mean", "setting": "E. coli LPS; 50 μM", "result": -4.033}, {"measurement": "BC displacement ratio", "setting": "E. coli LPS; 100 μM", "result": "did not displace BC probe"}, {"measurement": "BC displacement from LPS, Mean", "setting": "E. coli LPS; 100 μM", "result": -4.227}]}, {"compound": "CNC(C)C1CCC(N)C(OC2C(N)CC(N)C(OC3OCC(C)(O)C(NC)C3O)C2O)O1", "note": "(centres unmarked) [Gentamicin, gentamicin]", "values": [{"measurement": "Fold change in MIC", "setting": "E. coli CVCC195; Day 1 of serial passage", "result": 1, "unit": "fold"}, {"measurement": "Fold change in MIC", "setting": "E. coli CVCC195; Day 2 of serial passage", "result": 2, "unit": "fold"}, {"measurement": "Fold change in MIC", "setting": "E. coli CVCC195; Day 3 of serial passage", "result": 2, "unit": "fold"}, {"measurement": "Fold change in MIC", "setting": "E. coli CVCC195; Day 4 of serial passage", "result": 1, "unit": "fold"}, {"measurement": "Fold change in MIC", "setting": "E. coli CVCC195; Day 5 of serial passage", "result": 2, "unit": "fold"}, {"measurement": "Fold change in MIC", "setting": "E. coli CVCC195; Day 6 of serial passage", "result": 2, "unit": "fold"}, {"measurement": "Fold change in MIC", "setting": "E. coli CVCC195; Day 7 of serial passage", "result": 4, "unit": "fold"}, {"measurement": "Fold change in MIC", "setting": "E. coli CVCC195; Day 8 of serial passage", "result": 4, "unit": "fold"}, {"measurement": "Fold change in MIC", "setting": "E. coli CVCC195; Day 9 of serial passage", "result": 4, "unit": "fold"}, {"measurement": "Fold change in MIC", "setting": "E. coli CVCC195; Day 10 of serial passage", "result": 8, "unit": "fold"}, {"measurement": "Fold change in MIC", "setting": "E. coli CVCC195; Day 11 of serial passage", "result": 8, "unit": "fold"}, {"measurement": "Fold change in MIC", "setting": "E. coli CVCC195; Day 12 of serial passage", "result": 8, "unit": "fold"}, {"measurement": "Fold change in MIC", "setting": "E. coli CVCC195; Day 13 of serial passage", "result": 8, "unit": "fold"}, {"measurement": "Fold change in MIC", "setting": "E. coli CVCC195; Day 14 of serial passage", "result": 16, "unit": "fold"}, {"measurement": "Fold change in MIC", "setting": "E. coli CVCC195; Day 15 of serial passage", "result": 16, "unit": "fold"}, {"measurement": "Fold change in MIC", "setting": "E. coli CVCC195; Day 16 of serial passage", "result": 16, "unit": "fold"}, {"measurement": "Fold change in MIC", "setting": "E. coli CVCC195; Day 17 of serial passage", "result": 16, "unit": "fold"}, {"measurement": "Fold change in MIC", "setting": "E. coli CVCC195; Day 18 of serial passage", "result": 16, "unit": "fold"}, {"measurement": "Fold change in MIC", "setting": "E. coli CVCC195; Day 19 of serial passage", "result": 16, "unit": "fold"}, {"measurement": "Fold change in MIC", "setting": "E. coli CVCC195; Day 20 of serial passage", "result": 16, "unit": "fold"}, {"measurement": "Fold change in MIC", "setting": "E. coli CVCC195; Day 21 of serial passage", "result": 16, "unit": "fold"}, {"measurement": "Fold change in MIC", "setting": "E. coli CVCC195; Day 22 of serial passage", "result": 16, "unit": "fold"}, {"measurement": "Fold change in MIC", "setting": "E. coli CVCC195; Day 23 of serial passage", "result": 16, "unit": "fold"}, {"measurement": "Fold change in MIC", "setting": "E. coli CVCC195; Day 24 of serial passage", "result": 16, "unit": "fold"}, {"measurement": "Fold change in MIC", "setting": "E. coli CVCC195; Day 25 of serial passage", "result": 16, "unit": "fold"}, {"measurement": "Fold change in MIC", "setting": "E. coli CVCC195; Day 26 of serial passage", "result": 16, "unit": "fold"}, {"measurement": "Fold change in MIC", "setting": "E. coli CVCC195; Day 27 of serial passage", "result": 16, "unit": "fold"}, {"measurement": "Fold change in MIC", "setting": "E. coli CVCC195; Day 28 of serial passage", "result": 16, "unit": "fold"}, {"measurement": "Fold change in MIC", "setting": "E. coli CVCC195; Day 29 of serial passage", "result": 16, "unit": "fold"}, {"measurement": "Fold change in MIC", "setting": "E. coli CVCC195; Day 30 of serial passage", "result": 16, "unit": "fold"}, {"measurement": "MIC elevation", "setting": "E. coli CVCC195; at 7 d of serial passage", "result": 3, "unit": "fold"}, {"measurement": "MIC elevation", "setting": "E. coli CVCC195; at 15 d of serial passage", "result": 15, "unit": "fold"}]}, {"compound": "CC(C)[C@H](N)C(=O)N[C@H]1CSSC[C@@H](C(=O)N[C@@H](Cc2c[nH]cn2)C(=O)N[C@@H](CCCNC(=N)N)C(=O)N[C@@H](CCCNC(=N)N)C(=O)N[C@@H](C)C(=O)N[C@@H](CC(N)=O)C(=O)N[C@@H](CC(N)=O)C(=O)NCC(=O)N[C@H](C(=O)N[C@@H](CCCNC(=N)N)C(=O)N[C@H](C(=O)O)C(C)C)C(C)C)NC(=O)[C@H](CC(N)=O)NC(=O)[C@H](Cc2c[nH]c3ccccc23)NC(=O)[C@H](C)NC(=O)[C@H](Cc2ccccc2)NC(=O)CNC(=O)[C@H](CCCNC(=N)N)NC(=O)[C@H](Cc2ccc(O)cc2)NC(=O)[C@H](C(C)C)NC1=O", "note": "[N6CK] (H-VCVYRGFAWNCHRRANNGVRV-OH; disulfide 2-11; N-terminus and C-terminus assumed)", "values": [{"measurement": "MICs against the tested bacterial strains (range)", "setting": "tested bacterial strains", "result": "hardly any activity"}]}, {"compound": "CC(C)[C@@H]1NC(=O)CNC(=O)[C@H](CC(N)=O)NC(=O)[C@H](CCCNC(=N)N)NC(=O)[C@H](Cc2ccc(O)cc2)NC(=O)[C@H](C(C)C)NC(=O)[C@@H](NC(=O)[C@@H](NC(=O)[C@H](CC(N)=O)NC(=O)[C@H](Cc2c[nH]c3ccccc23)NC(=O)[C@H](C)NC(=O)[C@H](Cc2ccccc2)NC(=O)CN)C(C)C)CSSC[C@@H](C(=O)N[C@@H](Cc2cnc[nH]2)C(=O)N[C@@H](CCCNC(=N)N)C(=O)N[C@@H](CCCNC(=N)N)C(=O)N[C@@H](C)C(=O)N[C@@H](CC(N)=O)C(=O)O)NC(=O)[C@H](C(C)C)NC(=O)[C@H](CCCNC(=N)N)NC1=O", "note": "[N6] (H-GFAWNVCVYRNGVRVCHRRAN-OH; disulfide 7-16)", "values": [{"measurement": "antibacterial activity after pepsin (inhibition zone diameter), Mean", "setting": "pepsin", "result": 1.866}, {"measurement": "antibacterial activity without enzyme (inhibition zone diameter), Mean", "setting": "pepsin", "result": 2.004}, {"measurement": "antibacterial activity after trypsin (inhibition zone diameter), Mean", "setting": "trypsin", "result": 0}, {"measurement": "remaining at 1 h", "setting": "in vitro; 1 h", "result": 93, "unit": "%"}, {"measurement": "remaining at 2 h", "setting": "in vitro; 2 h", "result": 87.5, "unit": "%"}, {"measurement": "remaining at 4 h", "setting": "in vitro; 4 h", "result": 77.3, "unit": "%"}, {"measurement": "time after injection at which the fluorescence disappeared / peptide was excreted", "setting": "[1]", "result": 72, "unit": "h"}]}, {"compound": "RVQGRWKVRASFFKEAAAKEAAAKVCVYRGFAWNCHRRANNGVRV (disulfide 26-35) [A6CK]", "values": [{"measurement": "MICs against the tested bacterial strains (range)", "setting": "tested bacterial strains", "result": "hardly any activity"}]}]}
